What was measured:
[1] = Half-life period at pH 9.2 in the presence of five times more cysteine; ND1 indicates reaction rate was too quick to determine; type: ADME
[2] = Half-life period at pH 8.1 in the presence of five times more cysteine; type: ADME
[3] = Half-life period at pH 7.2 in the presence of five times more lysine; ND2 indicates reaction rate was too slow to measure
[4] = Half-life period at pH 9.2 in the presence of five times more lysine; type: ADME
[5] = Half-life period at pH 7.2 in the presence of five times more cysteine; type: ADME
[6] = Half-life period at pH 8.1 in the presence of five times more lysine; type: ADME

Q: For C=CS(=O)(=O)NCc1ccc([N+](=O)[O-])cc1, which T1/2 [1] is on record?
A: Its T1/2 is “Reaction rate too quick”.

Q: And the half-life [2]?
A: The half-life was 0.45 h.

Q: And the T1/2 [3]?
A: The T1/2 was “Reaction rate too slow”.

Q: What about the half-life [4] of the same molecule?
A: The half-life was 29.6 h.

Q: What about the half-life [5] of the same molecule?
A: Its half-life is 1.28 h.

Q: And the half-life [6]?
A: Its half-life is 178 h.

Reference: ChEMBL document CHEMBL1136513, “Evaluation of vinylsulfamides as sulfhydryl selective alkylation reagents in protein modification” (Bioorg Med Chem Lett, 2003)
